Test systems include HCT-116 colon; HS 578T breast; LOX IMVI melanoma; M14 melanoma; MALME-3M melanoma; SK-MEL-5 melanoma; SNB-19 CNS; UACC-257 melanoma.
What all share (assay): DTP human tumour cell line panel, 48 h

Where “and” joins values, the source holds several entries; their conditions need not be identical. Identical values can stand only once.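 In this assay, cells in 96-well plates receive the compound at five concentrations for 48 hours. Endpoints are linearly interpolated between the surrounding concentrations. GI50: concentration for 50% inhibition of growth. TGI is the concentration that stops growth completely.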 Where a SMILES comes first, the peptide text is derived from it. [ ]: non-standard residue; d: D form. Orn = NCCC[CH](N)C(=O)O

In the case of `CCC1=C[C@H]2CN(CCc3c([nH]c4ccccc34)[C@@](C(=O)OC)(c3cc4c(cc3OC)N(C)[C@H]3[C@@](O)(C(=O)OC)[C@H](OC(C)=O)[C@]5(CC)[C@@H]6C[C@@H]6CN6CC[C@]43[C@@H]65)C2)C1`, the GI50 – broadly, the concentration giving 50% growth inhibition – in the test with HCT-116 colon was 18.5 nM; in the test on HS 578T breast, 53 nM; with LOX IMVI melanoma, 22.9 nM; in the test with M14 melanoma, 26.4 nM; with MALME-3M melanoma it was 249 nM; with SK-MEL-5 melanoma, 14.3 nM. Further, the GI50 in the test on SNB-19 CNS was 82.5 nM; with UACC-257 melanoma, 3420 nM. Moreover, the concentration for total growth inhibition (TGI) (usually the concentration giving total growth inhibition) was found to be 2610 nM in the test on HCT-116 colon; 4160 nM with HS 578T breast; 3400 nM with LOX IMVI melanoma; 156 nM with M14 melanoma; 5820 nM with MALME-3M melanoma; 586 nM with SK-MEL-5 melanoma. In addition, the TGI is 23400 nM in the test on SNB-19 CNS and 7330 nM with UACC-257 melanoma.

In the case of `C(#Cc1ccccc1C#Cc1ccccn1)c1ccc(OCCCCCCOc2ccc(C#Cc3ccccc3C#Cc3ccccn3)cc2)cc1`, the GI50 was 6830 nM with HCT-116 colon; 5790 nM in the test on HS 578T breast; 229 nM in the test on LOX IMVI melanoma; 7470 nM in the test with M14 melanoma; 7760 nM with MALME-3M melanoma; 1730 nM with SK-MEL-5 melanoma. In addition, the GI50 in the test on SNB-19 CNS is 4390 nM; with UACC-257 melanoma, 5920 nM. The total growth inhibition concentration (TGI) is 15900 nM in the test with HCT-116 colon; 15700 nM in the test with HS 578T breast; 5710 nM in the test with LOX IMVI melanoma; 17600 nM in the test with M14 melanoma; 16300 nM in the test with MALME-3M melanoma; 7260 nM with SK-MEL-5 melanoma. Besides, the concentration for total growth inhibition (TGI) in the test on SNB-19 CNS turned out to be 11400 nM; in the test with UACC-257 melanoma, 12700 nM.

For the compound `CCCNNC(=O)c1ccc(CNC(=O)/C=C/c2ccccc2)cc1`, the GI50 with HCT-116 colon was 54.7 nM; with HS 578T breast, 207 nM; in the test on LOX IMVI melanoma it was 139 nM; in the test on M14 melanoma, 79 nM; in the test with MALME-3M melanoma, 47.5 nM; in the test on SK-MEL-5 melanoma, 102 nM. Besides, the concentration for 50% growth inhibition (GI50) was 314 nM with SNB-19 CNS and 150 nM in the test with UACC-257 melanoma. Further, the TGI is 527 nM in the test on HCT-116 colon; above 20800 nM in the test with HS 578T breast; 306 nM in the test on LOX IMVI melanoma; above 100000 nM in the test on M14 melanoma; above 100000 nM in the test with MALME-3M melanoma; 262 nM in the test on SK-MEL-5 melanoma. In the test with SNB-19 CNS, the TGI is above 100000 nM.

In the case of `O=CNc1ccc2c(c1)Cc1cc([N+](=O)[O-])ccc1-2`, the GI50 is 1380 nM in the test on HCT-116 colon; 1230 nM in the test with HS 578T breast; 2620 nM in the test on LOX IMVI melanoma; 291 nM in the test with M14 melanoma; 5970 nM with MALME-3M melanoma; 1530 nM with SK-MEL-5 melanoma. The GI50 in the test with SNB-19 CNS is 5630 nM; in the test with UACC-257 melanoma it was 5390 nM. For the same compound, the TGI in the test on HCT-116 colon is above 100000 nM; in the test on HS 578T breast, 5160 nM; in the test on LOX IMVI melanoma, 98500 nM; in the test with M14 melanoma it was above 100000 nM; in the test with MALME-3M melanoma, above 100000 nM; in the test with SK-MEL-5 melanoma, above 100000 nM. The total growth inhibition concentration (TGI) in the test with SNB-19 CNS and in the test on UACC-257 melanoma was above 100000 nM throughout.

Regarding `CC(C)CC1NC(=O)C(CCCN)NC(=O)C(C(C)C)NC(=O)C2CCCN2C(=O)C(Cc2ccccc2)NC(=O)C(CC(C)C)NC(=O)C(CCCN)NC(=O)C(C(C)C)NC(=O)C2CCCN2C(=O)C(Cc2ccccc2)NC1=O` (configuration not stated) (cyclo(FPV[Orn]LFPV[Orn]L); configuration not given here), the GI50 with HCT-116 colon was 10.2 nM and 16.7 nM; in the test with HS 578T breast, 16.6 nM and 45.3 nM; with LOX IMVI melanoma, 10.1 nM and 22.1 nM; with M14 melanoma, 10.1 nM; in the test with MALME-3M melanoma, 10.8 nM and 28.6 nM; with SK-MEL-5 melanoma, 7.25 nM. The GI50 with SNB-19 CNS is below 3.25 nM; in the test with UACC-257 melanoma it was 8.72 nM and 14.5 nM. For the same compound, the total growth inhibition concentration (TGI) in the test on HCT-116 colon was 122 nM and 213 nM; in the test with HS 578T breast, 784 nM and 1640 nM; with LOX IMVI melanoma it was 47.4 nM and 54 nM; in the test with M14 melanoma, 609 nM and 1520 nM; in the test on MALME-3M melanoma it was 120 nM and 92.9 nM; with SK-MEL-5 melanoma it was 19.9 nM and 22.9 nM. Besides, the total growth inhibition concentration (TGI) is 486 nM and 1380 nM in the test on SNB-19 CNS; 48 nM and 70.5 nM in the test with UACC-257 melanoma.

Regarding `O=C(O)c1cn(C2CC2)c2cc(N3CCN(C(=O)Nc4nc(-c5ccc(Cl)cc5)cs4)CC3)c(F)cc2c1=O`, the GI50 in the test on HCT-116 colon is 1120 nM; with HS 578T breast, 1910 nM; in the test on LOX IMVI melanoma it was 567 nM; in the test on M14 melanoma it was 2860 nM; with MALME-3M melanoma, 1470 nM; with SK-MEL-5 melanoma, 1760 nM. Also, the values for the GI50 in the test on SNB-19 CNS and in the test with UACC-257 melanoma were 2740 nM and 2920 nM, respectively. Besides, the TGI in the test on HCT-116 colon was above 100000 nM; in the test on HS 578T breast, 66100 nM; in the test with LOX IMVI melanoma it was above 100000 nM; in the test on M14 melanoma, above 100000 nM; in the test on MALME-3M melanoma, 5830 nM; in the test with SK-MEL-5 melanoma, 3920 nM. Also, the TGI was above 100000 nM in the test on SNB-19 CNS and 8240 nM in the test with UACC-257 melanoma.

Turning to `O=C1C=CC(=O)N1CCCCCCCCCCN1C(=O)C=CC1=O`, the GI50 in the test with HCT-116 colon is 3600 nM; in the test on HS 578T breast it was 16300 nM; with LOX IMVI melanoma it was 11300 nM; in the test with M14 melanoma it was 6900 nM; in the test on MALME-3M melanoma it was 2050 nM; in the test with SK-MEL-5 melanoma, 22200 nM. The GI50 is 37600 nM in the test on SNB-19 CNS and 11500 nM in the test with UACC-257 melanoma. Besides, the TGI with HCT-116 colon turned out to be 12900 nM; in the test with HS 578T breast, 56900 nM; in the test on LOX IMVI melanoma it was 24400 nM; in the test with M14 melanoma, 20000 nM; with MALME-3M melanoma it was 6490 nM; with SK-MEL-5 melanoma, 56100 nM. Besides, the concentration for total growth inhibition (TGI) in the test on SNB-19 CNS is above 100000 nM; in the test on UACC-257 melanoma it was 24800 nM.

`COc1ccc(-c2oncc2-c2cc(OC)c3c(c2)OCO3)cc1`: the GI50 with HCT-116 colon was 3280 nM; with HS 578T breast, 2490 nM; in the test with LOX IMVI melanoma it was 4010 nM; with M14 melanoma it was 2330 nM; with MALME-3M melanoma it was above 100000 nM; with SK-MEL-5 melanoma, 2840 nM. Besides, the GI50 is 5250 nM in the test on SNB-19 CNS and above 20000 nM in the test with UACC-257 melanoma. Further, the TGI was above 58300 nM with HCT-116 colon; 21200 nM in the test on HS 578T breast; above 60100 nM with LOX IMVI melanoma; above 69600 nM in the test with M14 melanoma; above 100000 nM in the test with MALME-3M melanoma; 14100 nM with SK-MEL-5 melanoma. Moreover, the concentration for total growth inhibition (TGI) in the test on SNB-19 CNS and with UACC-257 melanoma was above 100000 nM each time.

Values taken from PubChem BioAssay (NCI).
